“And” between values parts separate entries of the source, which are not always exact repeats. Equal entries are not always repeated.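 Step 1: Grow cells in 96-well plates. Step 2: Expose to compound for 48 hours at 5 concentrations. Step 3: Interpolate endpoints linearly; if unreached, use highest concentration. Here, GI50 denotes the concentration required for 50% inhibition of growth.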 The source made the active and inactive calls. Rule as the data show it: active = GI50 up to about 1.1 µM and inactive = higher.
Key:
Experiment in all cases: inhibition of tumour cell growth, NCI panel, 48 h
[1] = system: A549
[2] = system: CAKI-1
[3] = system: CCRF-CEM
[4] = system: COLO 205
[5] = system: EKVX
[6] = system: HCC 2998
[7] = system: HOP-92
[8] = system: IGROV-1
[9] = system: KM12
[10] = system: LOX IMVI
[11] = system: Malme-3M
[12] = system: NCI-H23
[13] = system: NCI-H522
[14] = system: RXF 393
[15] = system: SF-295
[16] = system: SW-620
[17] = system: TK-10
[18] = system: UACC-62
[19] = system: DMS-114
[20] = system: KM-20L2

| SMILES | GI50 [1] | GI50 [2] | GI50 [3] | GI50 [4] | GI50 [5] | GI50 [6] | GI50 [7] | GI50 [8] | GI50 [9] | GI50 [10] | GI50 [11] | GI50 [12] | GI50 [13] | GI50 [14] | GI50 [15] | GI50 [16] | GI50 [17] | GI50 [18] | GI50 [19] | GI50 [20] |
| --- | --- | --- | --- | --- | --- | --- | --- | --- | --- | --- | --- | --- | --- | --- | --- | --- | --- | --- | --- | --- |
| CC(NC(=O)C(NC(=O)CNC(=O)OC(C)(C)C)C(C)C)C(=O)Oc1c(Cl)c(Cl)c(Cl)c(Cl)c1Cl (stereo not given) | 22.4 µM (inactive) | 19 µM (inactive) | 51.1 µM (inactive) | 17 µM (inactive) | 27.4 µM (inactive) | 19.6 µM (inactive) | 16.3 µM (inactive) | 20.3 µM (inactive) | 15.1 µM (inactive) | 15.5 µM (inactive) | 21.5 µM (inactive) | 14 µM (inactive) | 23.9 µM (inactive) | 17.5 µM (inactive) | 14.5 µM (inactive) | 24.7 µM (inactive) | 26.8 µM (inactive) | 18.2 µM (inactive) |  |  |
| CC1(CO)C(O)CCC2(C)C1C(O)CC1CC3CC12CCC3(O)CO (stereo not given) | > 225 µM (inactive) | > 225 µM (inactive) | 138 µM (inactive) | > 225 µM (inactive) | > 205 µM (inactive) | > 225 µM (inactive) | > 225 µM (inactive) | > 225 µM (inactive) | > 225 µM (inactive) | > 225 µM (inactive) | > 225 µM (inactive) | > 225 µM (inactive) | > 225 µM (inactive) | > 225 µM (inactive) | 91.2 µM (inactive) | > 225 µM (inactive) |  | > 225 µM (inactive) | > 225 µM (inactive) | > 225 µM (inactive) |
| C=CCN1C(=O)/C(=C/c2ccccc2)N=C1SC1OC(COC(=O)c2ccccc2)C(OC(=O)c2ccccc2)C1OC(=O)c1ccccc1 (stereo not given) |  | 97.9 µM (inactive) | 34.9 µM (inactive) | > 100 µM (inactive) | > 100 µM (inactive) | > 100 µM (inactive) | 60.5 µM (inactive) | > 100 µM (inactive) | > 100 µM (inactive) | 78.3 µM (inactive) | > 100 µM (inactive) | > 100 µM (inactive) | 10.4 µM (inactive) | > 100 µM (inactive) | > 100 µM (inactive) | 79.8 µM (inactive) | > 100 µM (inactive) | 31.3 µM (inactive) |  |  |
| Cc1cc(OCC(O)CO)ccc1Cl (stereo not given) | > 100 µM (inactive) | > 100 µM (inactive) | > 100 µM (inactive) | > 100 µM (inactive) | > 100 µM (inactive) | > 100 µM (inactive) | > 100 µM (inactive) | > 100 µM (inactive) | > 100 µM (inactive) | > 100 µM (inactive) | > 100 µM (inactive) | > 100 µM (inactive) | > 100 µM (inactive) | > 100 µM (inactive) | > 100 µM (inactive) | > 100 µM (inactive) | > 100 µM (inactive) | > 100 µM (inactive) | > 100 µM (inactive) | > 100 µM (inactive) |
| CC1=CC2=C(C=O)C(=O)[C@](C)(O)[C@@H](O)C2=CO1 | 28 µM (inactive) | 33.5 µM (inactive) | 21.5 µM (inactive) | 28.1 µM (inactive) | 46.9 µM (inactive) | 19.1 µM (inactive) | > 65.5 µM (inactive) | 32.1 µM (inactive) | 33.3 µM (inactive) | 27.7 µM (inactive) | 26.4 µM (inactive) | 37.2 µM (inactive) | 17.2 µM (inactive) | 16.7 µM (inactive) | 35.7 µM (inactive) | 29.4 µM (inactive) |  | 23.5 µM (inactive) |  | 1.21 µM (inactive) |
| O=[N+]([O-])c1ccc(CNC2=NNS(=O)(=O)c3ccccc32)cc1 | > 100 µM (inactive) | 26.6 µM (inactive) | 19.5 µM (inactive) | > 100 µM (inactive) | > 100 µM (inactive) | > 100 µM (inactive) | > 100 µM (inactive) | > 100 µM (inactive) | > 100 µM (inactive) | 54 µM (inactive) | > 100 µM (inactive) |  |  | > 100 µM (inactive) | > 100 µM (inactive) | > 100 µM (inactive) |  | 34.6 µM (inactive) | > 100 µM (inactive) | > 100 µM (inactive) |
| CC/C(CC(=O)CCC(=O)Nc1ccc(C)c(C)c1)=N\NC(=O)c1cc2ccccc2cc1O |  | 20.8 µM (inactive) | 5.2 µM (inactive) | 37 µM (inactive) | 27.5 µM (inactive) | 18.4 µM (inactive) | 31.2 µM (inactive) | 19 µM (inactive) | 38.4 µM (inactive) | 16.1 µM (inactive) | 24.8 µM (inactive) | 23.6 µM (inactive) |  | 15.1 µM (inactive) | 37.2 µM (inactive) | 30.2 µM (inactive) |  | 14.6 µM (inactive) | 32.9 µM (inactive) | > 10 µM (inactive) |
| COC(=N)C(C)C | > 100 µM (inactive) | > 100 µM (inactive) | > 100 µM (inactive) | > 100 µM (inactive) |  | > 100 µM (inactive) | > 100 µM (inactive) | > 100 µM (inactive) | > 100 µM (inactive) | > 100 µM (inactive) | > 100 µM (inactive) | > 100 µM (inactive) | > 100 µM (inactive) | > 100 µM (inactive) | > 100 µM (inactive) | > 100 µM (inactive) | > 100 µM (inactive) | > 100 µM (inactive) | > 100 µM (inactive) | > 100 µM (inactive) |
| NC(CSC(=O)c1ccccc1)C(=O)O (stereo not given) | > 100 µM (inactive) | > 100 µM (inactive) | > 100 µM (inactive) | > 100 µM (inactive) | > 100 µM (inactive) |  | > 100 µM (inactive) | > 100 µM (inactive) | > 100 µM (inactive) | > 100 µM (inactive) | > 100 µM (inactive) | > 100 µM (inactive) | > 100 µM (inactive) | > 100 µM (inactive) | > 100 µM (inactive) | > 100 µM (inactive) | > 100 µM (inactive) | > 100 µM (inactive) |  |  |
| CC#CC#C/C=C1\C=CC2(OC=CC2OC(C)=O)O1 (stereo not given) | 35.2 µM (inactive) and 32.7 µM (inactive) | 15.2 µM (inactive) and > 10 µM (inactive) | 8.41 µM (inactive) and 14 µM (inactive) | 15 µM (inactive) and 16.4 µM (inactive) | 29.9 µM (inactive) and > 40 µM (inactive) | 22 µM (inactive) and 28 µM (inactive) | 20.6 µM (inactive) and 22.3 µM (inactive) | > 42.9 µM (inactive) and 42 µM (inactive) | 21.7 µM (inactive) and 21.8 µM (inactive) | 30.1 µM (inactive) and 16.1 µM (inactive) | 24.8 µM (inactive) and 26.4 µM (inactive) | 15 µM (inactive) and 11 µM (inactive) |  | 12.6 µM (inactive) | 47.8 µM (inactive) and 34.3 µM (inactive) | 24.8 µM (inactive) and 18.8 µM (inactive) | 34 µM (inactive) and 28.1 µM (inactive) | 18.9 µM (inactive) and 16.4 µM (inactive) | 18.2 µM (inactive) | 3.51 µM (inactive) |
| O=C1C=C2SC3C[C@@]24CC1(O)[N+]1=c2c4c(c(O)c4c2=C(C=N4)CC1)N3 | 2 µM (inactive) | 2.24 µM (inactive) | 0.321 µM (active) | 0.176 µM (active) | 4.13 µM (inactive) |  | 1.35 µM (inactive) | 1.57 µM (inactive) | 1.53 µM (inactive) | 0.546 µM (active) |  | 1.3 µM (inactive) | 0.296 µM (active) | 1.35 µM (inactive) | 1.58 µM (inactive) | 0.33 µM (active) |  | 0.533 µM (active) | 0.219 µM (active) | 0.313 µM (active) |
| COc1ccc(-c2cc(O)c3cc(C)cnc3n2)cc1 | 8.65 µM (inactive) | 6.11 µM (inactive) | 3.21 µM (inactive) | 3.22 µM (inactive) | 37 µM (inactive) | 14.5 µM (inactive) | 13.8 µM (inactive) | 4.12 µM (inactive) | 3.56 µM (inactive) | 6.5 µM (inactive) | 4.67 µM (inactive) | 6.19 µM (inactive) | 4.01 µM (inactive) | 7.94 µM (inactive) |  | 3.24 µM (inactive) | 2.86 µM (inactive) | 4.29 µM (inactive) |  |  |

From ChEMBL document CHEMBL1201862, “PubChem BioAssay data set” (2004)
